According to paper PMC13181761, “New Analogs of the Compstatin Family of Clinical Complement Inhibitors with Low Picomolar Target Affinity” (Journal of Medicinal Chemistry, 2026):
pIC50, pKd: −log10 of the molar value. Where “and” joins values, the source holds several entries; their conditions need not be identical. Identical values can stand only once. Like-named read-outs stand apart in the source and are kept apart here. Where a SMILES comes first, the peptide text is derived from it. Bridges are numbered along the chain shown (N, C = ends). [ ]: non-standard residue; d: D form. Trp(1-Me) = Cn1cc(C[C@H](N)C(=O)O)c2ccccc21; Nva(3-Et) = CCC(CC)[C@H](N)C(=O)O; NMeI = CC[C@H](C)[C@H](NC)C(=O)O; aIle = CC[C@@H](C)[C@H](N)C(=O)O; Sar = CNCC(=O)O

What was measured:
[1] = molecular target: T1, human C3b (Homo sapiens, UniProt P01024); assay: SPR kinetic binding to immobilized human C3b; settings: for koff: read-out: dissociation rate k d
T1 construct: purchased Complement Technology, Tyler, TX, USA
Description: Experiments were conducted at 25 °C in HBST buffer (10 mM HEPES, 150 mM NaCl, and 0.05% Tween-20, pH 7.4; XanTec bioanalytics). Human C3b (Complement Technology, Tyler, TX, USA) was immobilized via amine-reactive coupling. […] Individual peptide samples were injected for 120 s, followed by a 180 s dissociation phase. […] Signals from the reference cell and buffer blank injections were subtracted within each dilution series to correct for buffer effects and injection artifacts. Data were fitted to a Langmuir 1:1 binding model to calculate association (k a) and dissociation (k d) rate constants, and the equilibration constant K D is calculated based on the equation: K D = k d/k a. In the case of Cp40 derivatives and Cp60, a single-cycle approach was used for kinetic analysis by injecting 5 increasing concentrations of each compound (0.5-40 nM) consecutively without a regeneration period in between injections. Individual injections within a cycle were 120 s long with a 5 min dissociation phase between injections. […] Analog Cp40 was included in each experimental series as a reference and internal control. Signals from the reference cell and buffer blank injections were subtracted to correct for buffer effects and injection artifacts. Kinetic data were processed in BiaEvaluation (Cytiva) using single-cycle evaluation by global fitting each data set to a Langmuir 1:1 binding model. The reported kinetic parameters (Tables and ) indicate the mean values and standard deviations of three independent experiments. SPR sensorgrams are provided in the Supporting Information.

[2] = cynomolgus monkey, in vivo, 2 mg/kg
[3] = cynomolgus monkey, in vivo, sc, 2 mg/kg
[4] = tested on: classical pathway complement activation; assay: Classical pathway (CP) complement activation ELISA in normal human serum; assay type: biochemical
Description: The inhibitory activity of selected peptides in preventing pathway-specific complement activation was evaluated using ELISA as previously described. All assays used normal human serum (NHS), pooled from five unrelated, anonymized healthy donors, obtained with informed consent according to the local ethics committee, and following the guidelines of the Declaration of Helsinki (Blutspendezentrum Basel, Switzerland). To assess classical pathway activity, flat-bottom MaxiSorp 96-well plates (Thermo Fisher) were coated overnight at room temperature with 33 μg/mL IgM (Sigma) in a 0.1 M sodium carbonate buffer. Plates were washed 5 times with phosphate-buffered saline (Dubleccòs, Bioconcept) supplemented with 0.05% Tween-20 (PBS-T). Serial dilutions of peptides were prepared in 1% (v/v) NHS using HBBT++ assay buffer (10 mM HEPES, 150 mM NaCl, pH 7.4, 0.5% BSA, 0.15 mM CaCl2, 0.5 mM MgCl2, 0.1% Tween-20), with samples diluted in 1% (v/v) NHS. Negative controls included each inhibitor in assay buffer alone, assay buffer only, and 1% (v/v) NHS with 10 mM EDTA. HBBT++ with 1% (v/v) pooled NHS served as the 100%-control. After incubating for 1 h at 37 °C and shaking at 700 rpm, plates were washed 5 times with PBS-T. Next, 100 μL of biotinylated monoclonal mouse antihuman TCC antibody (1:1000, Hycult, clone: aE11) to detect terminal complement complexes was added to each well, followed by 1 h incubation at room temperature while shaking. After another 5 washes with PBS-T, 100 μL of HRP-conjugated NeutrAvidin (1:10,000, Invitrogen) was added to each well and incubated for 20 min at room temperature while shaking. Plates were washed 5 more times with PBS-T before adding 100 μL of 1-Step Turbo TMB-ELISA solution (Thermo Scientific) to each well. The reaction was allowed to develop until a light blue color appeared, and then stopped with 100 μL of 2 M sulfuric acid. Colorimetric detection was performed at 450 nm by using a plate reader (Synergy HT, Biotek). All assays were conducted in triplicate and normalized against 100% (no inhibitor, 1% (v/v) serum in buffer) and 0% (1% (v/v) serum in EDTA buffer) controls. In the cases of Cp60 and Cp40, 5% (v/v) NHS was used instead of 1% (v/v) NHS in some assays. Inhibition curves were fitted using nonlinear regression to a normalized variable slope model in Prism (v9-10, GraphPad).

[5] = SPR screening at 2 and 1 μM, series up to 16 μM, read-out: affinity hC3b (class symbol N.B./W.B.)
[6] = SPR, 1:1 Langmuir fit, average of 3 independent experiments, SD in brackets
[7] = SPR, 1:1 Langmuir fit, average of 3 independent experiments, SD in brackets, read-out: K D, affinity hC3b

T1 sequence (P01024 23-667 limits assumed): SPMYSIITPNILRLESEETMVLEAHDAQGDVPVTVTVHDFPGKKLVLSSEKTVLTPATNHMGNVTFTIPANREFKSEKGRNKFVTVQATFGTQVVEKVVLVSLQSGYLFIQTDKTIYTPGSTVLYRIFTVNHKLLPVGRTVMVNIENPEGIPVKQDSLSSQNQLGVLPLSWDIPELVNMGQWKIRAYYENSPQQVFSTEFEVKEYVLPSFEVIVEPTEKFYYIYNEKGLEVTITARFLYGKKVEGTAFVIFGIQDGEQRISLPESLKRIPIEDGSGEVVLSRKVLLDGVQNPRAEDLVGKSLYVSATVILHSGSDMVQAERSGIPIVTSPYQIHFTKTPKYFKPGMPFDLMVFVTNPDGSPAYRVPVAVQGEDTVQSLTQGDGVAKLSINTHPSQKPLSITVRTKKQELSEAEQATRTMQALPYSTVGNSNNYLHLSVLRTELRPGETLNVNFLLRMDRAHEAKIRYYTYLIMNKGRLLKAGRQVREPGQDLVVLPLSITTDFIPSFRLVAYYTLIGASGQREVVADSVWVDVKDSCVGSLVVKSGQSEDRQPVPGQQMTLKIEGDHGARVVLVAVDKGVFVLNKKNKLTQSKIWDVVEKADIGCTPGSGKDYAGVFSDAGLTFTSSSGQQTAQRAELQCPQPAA
T1 sequence (P01024 749-1663 partner limits assumed): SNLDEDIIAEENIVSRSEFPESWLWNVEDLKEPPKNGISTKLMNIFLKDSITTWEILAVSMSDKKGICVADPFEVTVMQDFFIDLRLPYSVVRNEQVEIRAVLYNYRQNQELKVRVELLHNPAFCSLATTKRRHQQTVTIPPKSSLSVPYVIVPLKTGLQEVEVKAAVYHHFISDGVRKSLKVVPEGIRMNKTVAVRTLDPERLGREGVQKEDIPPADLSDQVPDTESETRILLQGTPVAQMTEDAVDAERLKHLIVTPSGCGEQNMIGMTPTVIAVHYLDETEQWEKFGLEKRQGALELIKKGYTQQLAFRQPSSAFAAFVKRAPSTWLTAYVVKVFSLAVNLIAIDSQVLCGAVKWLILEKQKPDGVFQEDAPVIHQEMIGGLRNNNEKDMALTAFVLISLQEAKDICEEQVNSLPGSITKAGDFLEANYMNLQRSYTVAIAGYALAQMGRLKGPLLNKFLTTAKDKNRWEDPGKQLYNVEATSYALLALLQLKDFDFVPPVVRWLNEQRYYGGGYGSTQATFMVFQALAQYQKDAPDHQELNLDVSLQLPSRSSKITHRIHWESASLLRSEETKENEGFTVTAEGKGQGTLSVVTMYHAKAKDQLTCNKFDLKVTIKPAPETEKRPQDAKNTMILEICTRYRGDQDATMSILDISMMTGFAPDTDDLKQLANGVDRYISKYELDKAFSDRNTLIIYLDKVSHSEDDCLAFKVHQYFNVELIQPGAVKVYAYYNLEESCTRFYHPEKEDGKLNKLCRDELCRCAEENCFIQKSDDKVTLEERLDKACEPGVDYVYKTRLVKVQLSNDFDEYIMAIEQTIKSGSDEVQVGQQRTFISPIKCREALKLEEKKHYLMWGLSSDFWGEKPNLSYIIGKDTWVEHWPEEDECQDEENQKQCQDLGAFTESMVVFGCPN

CC[C@H](C)[C@H](NC(C)=O)C(=O)N[C@H]1CSSC[C@@H](C(=O)N[C@H](C(N)=O)[C@@H](C)O)NC(=O)[C@H](CCCNC(=N)N)NC(=O)[C@H](Cc2c[nH]cn2)NC(=O)[C@H](C)NC(=O)CNC(=O)[C@H](Cc2c[nH]c3ccccc23)NC(=O)[C@H](CC(=O)O)NC(=O)[C@H](CCC(N)=O)NC(=O)[C@H](Cc2c[nH]c3ccccc23)NC(=O)C(C)(C)NC1=O [Cp01-Val3Aib]
pKd [1, 5]: < 5.70

CC[C@H](C)[C@H](NC(C)=O)C(=O)N[C@H]1CSSC[C@@H](C(=O)N[C@H](C(N)=O)[C@@H](C)O)NC(=O)[C@H](CCCNC(=N)N)NC(=O)[C@H](Cc2c[nH]cn2)NC(=O)[C@H](C)NC(=O)CNC(=O)[C@H](Cc2c[nH]c3ccccc23)NC(=O)[C@H](CC(=O)O)NC(=O)[C@H](CCC(N)=O)NC(=O)[C@H](Cc2c[nH]c3ccccc23)NC(=O)[C@H](C)NC1=O [Cp01-Val3Ala]
pKd [1, 5]: < 5.70

CC[C@H](C)[C@H](NC(C)=O)C(=O)N[C@H]1CSSC[C@@H](C(=O)N[C@H](C(N)=O)[C@@H](C)O)NC(=O)[C@H](CCCNC(=N)N)NC(=O)[C@H](Cc2c[nH]cn2)NC(=O)[C@H](C)NC(=O)CNC(=O)[C@H](Cc2c[nH]c3ccccc23)NC(=O)[C@H](CC(=O)O)NC(=O)[C@H](CCC(N)=O)NC(=O)[C@H](Cc2c[nH]c3ccccc23)NC(=O)[C@H](CC(C)C)NC1=O [Cp01-Val3Leu] (Ac-ICLWQDWGAHRCT-NH2; disulfide 2-12)
k a, affinity hC3b [1, 6]: 2.0(0.5) 10^5 M^–1 s^–1
k d, affinity hC3b [1, 6]: 11(1) 10^–2 s^–1
pKd [1, 7]: 6.26

CC[C@H](C)[C@H](NC(C)=O)C(=O)N[C@H]1CSSC[C@@H](C(=O)N[C@H](C(N)=O)[C@@H](C)O)NC(=O)[C@H](CCCNC(=N)N)NC(=O)[C@H](Cc2c[nH]cn2)NC(=O)[C@H](C)NC(=O)CNC(=O)[C@H](Cc2c[nH]c3ccccc23)NC(=O)[C@H](CC(=O)O)NC(=O)[C@H](CCC(N)=O)NC(=O)[C@H](Cc2c[nH]c3ccccc23)NC(=O)[C@H](Cc2ccccc2)NC1=O [Cp01-Val3Phe]
pKd [1, 5]: < 5.70

CC[C@H](C)[C@H](NC(C)=O)C(=O)N[C@H]1CSSC[C@@H](C(=O)N[C@H](C(N)=O)[C@@H](C)O)NC(=O)[C@H](CCCNC(=N)N)NC(=O)[C@H](Cc2c[nH]cn2)NC(=O)[C@H](C)NC(=O)CNC(=O)[C@H](Cc2c[nH]c3ccccc23)NC(=O)[C@H](CC(=O)O)NC(=O)[C@H](CCC(N)=O)NC(=O)[C@H](Cc2c[nH]c3ccccc23)NC(=O)[C@H](Cc2c[nH]c3ccccc23)NC1=O [Cp01-Val3Trp]
pKd [1, 5]: < 5.70

CC[C@H](C)[C@H](NC(C)=O)C(=O)N[C@H]1CSSC[C@@H](C(=O)N[C@H](C(N)=O)[C@@H](C)O)NC(=O)[C@H](CCCNC(=N)N)NC(=O)[C@H](Cc2c[nH]cn2)NC(=O)[C@H](C)NC(=O)CNC(=O)[C@H](Cc2c[nH]c3ccccc23)NC(=O)[C@H](CC(=O)O)NC(=O)[C@H](CCC(N)=O)NC(=O)[C@H](Cc2cn(C)c3ccccc23)NC(=O)[C@H]([C@@H](C)CC)NC1=O [Cp05-Val3Ile] (Ac-ICI[Trp(1-Me)]QDWGAHRCT-NH2; disulfide 2-12)
pKd [1, 7]: 8.82
koff ([1]; SPR): 0.002 s⁻¹

CCC(CC)[C@@H]1NC(=O)[C@@H](NC(=O)[C@@H](NC(=O)[C@H](N)Cc2ccc(O)cc2)[C@@H](C)CC)CSSC[C@@H](C(=O)N(C)[C@H](C(N)=O)[C@@H](C)CC)NC(=O)[C@H](CCCNC(=N)N)NC(=O)[C@H](Cc2c[nH]cn2)NC(=O)[C@H](C)NC(=O)CN(C)C(=O)[C@H](Cc2c[nH]c3ccccc23)NC(=O)[C@H](CC(=O)O)NC(=O)[C@H](CCC(N)=O)NC(=O)[C@H](Cc2cn(C)c3ccccc23)NC1=O [Cp40-Val3Dea] (H-[dY]IC[Nva(3-Et)][Trp(1-Me)]QDW[Sar]AHRC[NMeI]-NH2; disulfide 3-13)
k a, affinity hC3b [1, 6]: 4.3(0.7) 10^5 M^–1 s^–1
k d, affinity hC3b [1, 6]: 0.6(0.1) 10^–2 s^–1

CC[C@@H](C)[C@@H]1NC(=O)[C@@H](NC(=O)[C@@H](NC(=O)[C@H](N)Cc2ccc(O)cc2)[C@@H](C)CC)CSSC[C@@H](C(=O)N(C)[C@H](C(N)=O)[C@@H](C)CC)NC(=O)[C@H](CCCNC(=N)N)NC(=O)[C@H](Cc2c[nH]cn2)NC(=O)[C@H](C)NC(=O)CN(C)C(=O)[C@H](Cc2c[nH]c3ccccc23)NC(=O)[C@H](CC(=O)O)NC(=O)[C@H](CCC(N)=O)NC(=O)[C@H](Cc2cn(C)c3ccccc23)NC1=O [Cp40-Val3aIle] (H-[dY]IC[aIle][Trp(1-Me)]QDW[Sar]AHRC[NMeI]-NH2; disulfide 3-13)
k a, affinity hC3b [1, 6]: 4.6(0.7) 10^5 M^–1 s^–1
k d, affinity hC3b [1, 6]: 0.7(0.3) 10^–2 s^–1
pKd [1, 7]: 7.81

CC[C@H](C)[C@H](NC(=O)[C@H](N)Cc1ccc(O)cc1)C(=O)N[C@H]1CSSC[C@@H](C(=O)N(C)[C@H](C(=O)N[C@@H](CCCCN)C(=O)N[C@@H](CCCCN)C(N)=O)[C@@H](C)CC)NC(=O)[C@H](CCCNC(=N)N)NC(=O)[C@H](Cc2c[nH]cn2)NC(=O)[C@H](C)NC(=O)CN(C)C(=O)[C@H](Cc2c[nH]c3ccccc23)NC(=O)[C@H](CC(=O)O)NC(=O)[C@H](CCC(N)=O)NC(=O)[C@H](Cc2cn(C)c3ccccc23)NC(=O)[C@H]([C@@H](C)CC)NC1=O [Cp60-KK] (H-[dY]ICI[Trp(1-Me)]QDW[Sar]AHRC[NMeI]KK-NH2; disulfide 3-13)
AUC(0-t) ([2]; AUC0–120h, range over both animals): 230 to 400 µM·h
Tmax ([2]; sc): 2 h
AUC(0-t) ([2]; sc, AUC0-120h): 228 µM·h
AUC(0-inf) ([2]; sc, AUC0-∞): 479 µM·h
Cmax ([2]; sc, Cmax): 7.52 µM
half-life ([2]; sc, t 1/2, terminal elimination phase, range over both animals): 30 to 40 h
half-life ([2]; sc, t½): 30.8 h
AUC0-120h [3]: 401 µM·h
AUC0-∞ [3]: 250 µM·h

CC[C@H](C)[C@H](NC(=O)[C@H](N)Cc1ccc(O)cc1)C(=O)N[C@H]1CSSC[C@@H](C(=O)N(C)[C@H](C(N)=O)[C@@H](C)CC)NC(=O)[C@H](CCCNC(=N)N)NC(=O)[C@H](Cc2c[nH]cn2)NC(=O)[C@H](C)NC(=O)CN(C)C(=O)[C@H](Cc2c[nH]c3ccccc23)NC(=O)[C@H](CC(=O)O)NC(=O)[C@H](CCC(N)=O)NC(=O)[C@H](Cc2cn(C)c3ccccc23)NC(=O)[C@H]([C@@H](C)CC)NC1=O [Cp60] (H-[dY]ICI[Trp(1-Me)]QDW[Sar]AHRC[NMeI]-NH2; disulfide 3-13)
fold enhancement in binding affinity of Cp60 over Cp40 ([1]; K D ratio vs Cp40): > 8 fold and 10 fold
k a, affinity hC3b [1, 6]: 17.6(1.4) 10^5 M^–1 s^–1
k d, affinity hC3b [1, 6]: 0.01 10^–2 s^–1
k d, affinity hC3b ([1]; SPR, 1:1 Langmuir fit, average of 3 independent experiments, SD in brackets, listed as Cp40 Ile): 0.01(0.0) 10^–2 s^–1
target residence (τ) ([1]; SPR, C3b): exceeding 100 min
koff ([1]; SPR): 0.0001 s⁻¹
CP inhibition compared with Cp40 ([4]; CP ELISA, 1% human serum): did not show improved CP inhibition
pIC50 ([4]; CP ELISA, 5% human serum): 7.01
fold enhancement in inhibitory potency of Cp60 over Cp40 ([4]; IC50 ratio vs Cp40): < 2 fold
